Data set [1] has as its system melanoma (A375, B16-F1) and prostate cancer cells (DU145, PC-3, LNCaP, PPC-1). Description: SRB assay, range over melanoma and prostate cancer cell lines. In kind it is cell-based. The following applies: for antiproliferative activity against melanoma and prostate cancer cell lines, in words: compared with 8f or parent compounds. On the procedure:
For melanoma assays, one human melanoma cell line (A375) and one mouse melanoma cell line (B16-F1) were used. […] Fibroblast cells were used as a control to determine the selectivity of these compounds against melanoma. Human dermal fibroblast cells were purchased from Cascade Biologics, Inc., Portland, Oreg., USA. […] Cells were exposed to a wide range of concentrations for 48 h in round-bottomed 96-well plates. […] After cells were air-dried overnight and stained with SRB solution, total proteins were measured at 560 nm with a plate reader.
For orientation: In SRB staining, fixed cells bind dye roughly in proportion to their protein.

The subject of data set [2] is B16-F1. Put plainly: SRB antiproliferation assay, B16-F1 melanoma. Type of data set: cell-based, mouse. The source says:
(§1) For melanoma assays, one human melanoma cell line (A375) and one mouse melanoma cell line (B16-F1) were used. […] Fibroblast cells were used as a control to determine the selectivity of these compounds against melanoma. Human dermal fibroblast cells were purchased from Cascade Biologics, Inc., Portland, Oreg., USA.

Data set [3] relates to A375. Put plainly: SRB antiproliferation assay, A375 melanoma. Type of data set: cell-based, human.
From the text: as §1

The subject of data set [4] is LNCaP. Description: SRB antiproliferation assay, LNCaP prostate cancer. The following applies: read-out: IC50 LNCaP, SRB.
Data set [5] relates to PC-3. Put plainly: SRB antiproliferation assay, PC-3 prostate cancer. The following applies: read-out: IC50 PC-3, SRB.
For data set [6], the system named is PPC-1. Description: SRB antiproliferation assay, PPC-1 prostate cancer. To be noted: read-out: IC50 PPC-1; SRB, 96 h; listed as 4b(4S).
For data set [7], the system named is DU 145. Description: SRB antiproliferation assay, DU 145 prostate cancer. The following applies: read-out: IC50 DU 145; SRB.
Setting [8] is: Mus musculus, B16-F1, 48 h, SRB, 48 h, read-out: IC50 B16-F1 (converted).
Where [9] appears, read: Homo sapiens, A-375, 48 h, SRB, 48 h, read-out: IC50 A375 (converted).
[10] abbreviates: range over the examined cell lines, read-out: IC50 over melanoma and prostate cancer cell lines.
Where [11] appears, read: Mus musculus, B16-F1, read-out: IC50 B16-F1.
The mark [12] stands for this setting: Homo sapiens, A-375, read-out: IC50 A375.
The mark [13] stands for this setting: Mus musculus, B16-F1, SRB, read-out: IC50 B16-F1 (converted).
The mark [14] stands for this setting: Homo sapiens, A-375, SRB, read-out: IC50 A375 (converted).

“And” between values parts separate entries of the source, which are not always exact repeats. Equal values may be shown once. Read-outs that look alike come from different tables or passages of the source.

This is an account of results in patent US10865196B2, “Compounds for treatment of cancer” (University of Tennessee Research Foundation, priority 2008, dated 2020).

Usually melting point stands for the temperature of the solid-liquid transition. Usually IC50 stands for the concentration that inhibits the measured activity by half.

For the molecule `COc1cc(NC(=O)[C@@H]2CSC(c3ccccc3)N2)cc(OC)c1OC` (mixture of isomers) [2a, (2RS,4R)-2-Phenyl-N-(3,4,5-trimethoxyphenyl)thiazolidine-4-carboxamide], the melting point is 158 to 159 °C. Also, the “antiproliferative activity against melanoma and prostate cancer cell lines, in words” value (from here on “antiproliferative activity”) in data set [1] is “potency against both cancer cell lines was lost”. Besides, in data set [2] (setting [8]), the IC50 is above 100 µM. Further, the half-maximal inhibitory concentration (IC50) in data set [3] (setting [9]) is above 100 µM.
On to `COc1cc(NC(=O)[C@@H]2CSC(c3cc(OC)c(OC)c(OC)c3)N2)cc(OC)c1OC` (mixture of isomers) [2b, (2RS,4R)—N,2-bis(3,4,5-trimethoxyphenyl)thiazolidine-4-carboxamide], for which the melting point was in the range of 147 to 149 °C. In data set [1], the “antiproliferative activity” value was “potency against both cancer cell lines was lost”. Further, the 50% inhibitory concentration (IC50) in data set [2] (setting [8]) was above 100 µM. For the same molecule, in data set [3] (setting [9]), the concentration for half-maximal inhibition (IC50) was above 100 µM.
Turning to `COc1cc(NC(=O)[C@@H]2CSC(c3ccccc3)=N2)cc(OC)c1OC` [4a, (4R)-2-Phenyl-N-(3,4,5-trimethoxyphenyl)-4,5-dihydrothiazole-4-carboxamide], the melting point is 121 to 122 °C and 122 to 123 °C. In data set [1] (setting [10]), the half-maximal inhibitory concentration (IC50) fell in the range of 3.4 to 38.3 µM. The 50% inhibitory concentration (IC50) in data set [2] (setting [8]) is 38.3 ± 3.2 µM. The IC50 in data set [3] (setting [9]) is 22.8 ± 1.6 µM.
As to `COc1cc(NC(=O)[C@@H]2CSC(c3ccccc3)=N2)cc(OC)c1OC` [4b, (4R)-2-Phenyl-N-(3,4,5-trimethoxyphenyl)-4,5-dihydrothiazole-4-carboxamide], the half-inhibitory concentration (IC50) is 16.8 ± 1.8 µM in data set [4] (96 h, listed as 4b(4S)); 13.2 ± 2.1 µM in data set [5] (96 h, listed as 4b(4S)); 3.4 ± 0.2 µM in data set [6]; 30.4 ± 2.8 µM in data set [2] (SRB, 48 h, listed as 4b(4S), read-out: IC50 B16-F1 (converted)); 13.6 ± 1.2 µM in data set [3] (SRB, 48 h, listed as 4b(4S), read-out: IC50 A375 (converted)).
Take `O=C(c1ccccc1)c1csc(-c2ccccc2)n1` [8a, Phenyl (2-phenylthiazol-4-yl)-methanone]: the melting point was in the range of 65 to 66 °C. Further, in data set [2] (setting [8]), the concentration for half-maximal inhibition (IC50) is above 100 µM. Further, the half-maximal inhibitory concentration (IC50) in data set [3] (setting [9]) was above 100 µM.
The molecule `COc1ccc(C(=O)c2csc(-c3ccccc3)n2)cc1` [8b, (4-Methoxyphenyl)(2-phenylthiazol-4-yl)-methanone] came in with a melting point of 105 to 106 °C. In data set [1] (setting [10]), the half-maximal inhibitory concentration (IC50) is above 20 µM. The concentration for half-maximal inhibition (IC50) in data set [2] (setting [8]) is above 100 µM. For the same molecule, the IC50 in data set [3] (setting [9]) is above 100 µM.
As to `COc1cccc(C(=O)c2csc(-c3ccccc3)n2)c1` [8c, (3-Methoxyphenyl)(2-phenylthiazol-4-yl)-methanone], the melting point lay within 43 to 44 °C. Also, the IC50 in data set [1] (setting [10]) was above 20 µM. The IC50 in data set [2] (setting [8]) was above 100 µM. For the same molecule, in data set [3] (setting [9]), the half-maximal inhibitory concentration (IC50) was above 100 µM.
`COc1ccccc1C(=O)c1csc(-c2ccccc2)n1` [8d, (2-Methoxyphenyl)(2-phenylthiazol-4-yl)-methanone]: the results for the IC50 in data set [1] (setting [10]), in data set [2] (setting [8]) and in data set [3] (setting [9]) were above 20 µM, 59.4 µM and 70.3 µM, respectively.
For the molecule `COc1ccc(C(=O)c2csc(-c3ccccc3)n2)cc1OC` [8e, (3,4-Dimethoxyphenyl)(2-phenylthiazol-4-yl)-methanone], the melting point was in the range of 89 to 91 °C. Besides, the IC50 in data set [1] (setting [10]) was above 20 µM. Moreover, in data set [2] (setting [8]), the IC50 is above 100 µM. The IC50 in data set [3] (setting [9]) is above 100 µM.
As to `COc1cc(OC)cc(C(=O)c2csc(-c3ccccc3)n2)c1` [8g, (3,5-Dimethoxyphenyl)(2-phenylthiazol-4-yl)-methanone], the melting point is 84 to 85 °C. Besides, the IC50 in data set [1] (average over six cell lines, read-out: average IC50) turned out to be 0.261 µM. Besides, the half-inhibitory concentration (IC50) in data set [1] (setting [10]) lay within 0.17 to 0.424 µM. In addition, the concentration for half-maximal inhibition (IC50) in data set [2] (setting [8]) was 0.35 µM. The IC50 in data set [3] (setting [9]) is 0.17 µM.
`O=C(c1csc(-c2ccccc2)n1)c1ccccc1F` [8h, (2-Fluorophenyl)(2-phenylthiazol-4-yl)-methanone] came in with a melting point of 77 to 79 °C. In addition, in data set [2] (setting [8]), the IC50 was above 100 µM. Moreover, in data set [3] (setting [9]), the IC50 is above 100 µM.
As to `O=C(c1ccccn1)c1csc(-c2ccccc2)n1` [8i, (2-Phenylthiazol-4-yl)-(pyridin-2-yl)-methanone], the melting point was 95 to 97 °C. Further, the “antiproliferative activity” value in data set [1] is listed as “total loss of the anti-cancer activity”.
For the molecule `CCCCCCCCCCCCCCCCC(=O)c1csc(-c2ccccc2)n1` [8j, 1-(2-Phenylthiazol-4-yl)-heptadecan-1-one], the melting point lay in the range of 63 to 64 °C. Besides, in data set [2] (setting [8]), the IC50 was 18.6 µM. Further, the IC50 in data set [3] (setting [9]) is 16 µM.
With `COc1cc(C(=O)c2csc(-c3ccc(C)cc3)n2)cc(OC)c1OC` [8k, (2-p-Tolylthiazol-4-yl)-(3,4,5-trimethoxyphenyl)-methanone], the melting point lay within 116 to 119 °C. In addition, the half-maximal inhibitory concentration (IC50) in data set [1] (setting [10]) lay within 0.005 to 0.021 µM. For the same molecule, the IC50 in data set [5] is 0.005 µM.
Take `COc1cc(C(=O)c2csc(-c3ccc(C(=O)O)cc3)n2)cc(OC)c1OC` [8r, 4-[4-(3,4,5-Trimethoxybenzoyl)-thiazol-2-yl]-benzoic acid]: the melting point was > 220 °C (dec.). For the same molecule, the “antiproliferative activity” value in data set [1] was “total loss of the anti-cancer activity”.
In the case of `COC(=O)c1ccc(-c2nc(C(=O)c3cc(OC)c(OC)c(OC)c3)cs2)cc1` [8s, Methyl-4-[4-(3,4,5-trimethoxybenzoyl)-thiazol-2-yl]-benzoate], the melting point lay within 172 to 174 °C. Besides, in data set [1], the “antiproliferative activity” value is “total loss of potency”.
As for `COc1cc(C(=O)c2csc(-c3ccc(N)cc3)n2)cc(OC)c1OC` [8w, [2-(4-Amino-phenyl)-thiazol-4-yl]-(3,4,5-trimethoxy-phenyl)-methanone], in data set [1] (setting [10]), the IC50 was in the range of 0.011 to 0.029 µM.
For `COc1cc(C(=O)c2csc(-c3cccs3)n2)cc(OC)c1OC` [8z, [2-(Thiophen-2-yl)-thiazol-4-yl]-(3,4,5-trimethoxyphenyl)-methanone], the IC50 was 0.022 ± 0.001 µM in data set [7]; 0.009 ± 0.001 µM in data set [4]; 0.009 to 0.038 µM in data set [1] (setting [10]); 0.038 ± 0.015 µM in data set [2] (setting [11]); 0.02 ± 0.007 µM in data set [3] (setting [12]).
`O=C(c1cc(O)c(O)c(O)c1)c1csc(-c2ccccc2)n1` [11f, (2-Phenyl-thiazol-4-yl)-(3,4,5-trihydroxy-phenyl)-methanone]: the “antiproliferative activity” value in data set [1] was “complete loss of antiproliferative activity”.
`O=C(c1ccc(F)cc1)c1csc(-c2ccccc2)n1` [12-12]: the 50% inhibitory concentration (IC50) in data set [2] (setting [13]) and in data set [3] (setting [14]) was above 10 µM each time.
On to `O=C(c1ccc(F)cc1)c1csc(-c2ccc(F)cc2)n1` [14-14], for which the half-maximal inhibitory concentration (IC50) in data set [2] (setting [13]) and in data set [3] (setting [14]) was above 10 µM throughout.
As for `O=C(c1csc(-c2cc(F)c(F)c(F)c2)n1)c1c(F)c(F)c(F)c(F)c1F` [16-16], the IC50 in data set [2] (setting [13]) is 6.9 µM; in data set [3] (setting [14]), 15.2 µM.
`O=C(c1csc(-c2ccccc2)n1)c1c(F)c(F)c(F)c(F)c1F` [17-17]: the half-inhibitory concentration (IC50) is 9.8 µM in data set [2] (setting [13]) and 4.3 µM in data set [3] (setting [14]).
Regarding `O=C(c1ccc2c(c1)OCO2)N1CCC(c2ccccc2)CC1` [19-19], the half-inhibitory concentration (IC50) in data set [2] (setting [13]) and in data set [3] (setting [14]) was above 20 µM in each case.
On to `O=C(c1ccc(F)cc1)N1CCC(c2ccccc2)CC1` [22-22], for which the IC50 in data set [2] (setting [13]) and in data set [3] (setting [14]) was above 20 µM in each case.
For the molecule `COc1cc(C(=O)c2csc(-c3ccc(N)cc3)n2)cc(OC)c1OC` [26-26], the IC50 in data set [2] (setting [11]) turned out to be 0.014 µM; in data set [3] (setting [12]), 0.011 µM.
On to `Cc1ccc(-c2nc(C(=O)c3ccc(F)cc3)cn2C(=O)c2ccc(F)cc2)cc1` [29-29], for which the concentration for half-maximal inhibition (IC50) in data set [2] (setting [13]) and in data set [3] (setting [14]) was above 10 µM each time.
Regarding `COc1cc(-c2nc(C(=O)c3ccc(F)cc3)cn2C(=O)c2ccc(F)cc2)cc(OC)c1OC` [30-30], the IC50 in data set [2] (setting [13]) and in data set [3] (setting [14]) was above 10 µM each time.
With `O=C(c1cc(O)c(O)c(O)c1)c1csc(-c2ccccc2)n1` [33-33], the IC50 in data set [2] (setting [13]) was above 20 µM; in data set [3] (setting [14]), 9.8 µM.
For `COc1cc(C(=O)c2csc(-c3ccccc3)n2)cc(OC)c1O` [34-34], in that order: above 10 µM and above 10 µM.
`COc1cc(NC(=O)c2csc(-c3ccccc3)n2)cc(OC)c1OC` [compound 5, 2-Phenyl-N-(3,4,5-trimethoxyphenyl)thiazole-4-carboxamide] came in with a melting point of 157 to 158 °C. The “antiproliferative activity” value in data set [1] is given as “did not show any cytotoxicity”. Also, the half-maximal inhibitory concentration (IC50) in data set [2] (setting [8]) was above 100 µM. Further, the IC50 in data set [3] (setting [9]) was above 100 µM.
